Entries after “also recorded” stand apart in the source; their conditions may differ.
Key:
MV4-11 cells [1] = assay: Cell viability assay (CCK-8) in MV4-11 cells; type: cell-based; settings: Homo sapiens, MV4-11, 72 h, CCK-8, normalized to vehicle
Protocol: (§1) We proceeded to evaluate the cytotoxic activities of ZW30441 in AML cell lines by treating MOLM13 and MV4-11 cells with ZW30441 in increasing doses for 72 h.
(§2) Cell Lines and Culture Conditions: The human acute myeloid leukemia (AML) cell lines MOLM13 and MV4.11, as well as the HEK 293T epithelial kidney cell line, were obtained from the American Type Culture Collection (ATCC, USA). AML cells were maintained in RPMI-1640 medium (Gibco, USA) supplemented with 10% fetal bovine serum (FBS) and 1% penicillin-streptomycin (Sigma, Germany). HEK 293T cells were cultured in complete Dulbecco’s Modified Eagle Medium (DMEM) containing 10% FBS and 1% penicillin-streptomycin (Sigma). All cell lines were maintained under standard conditions in a humidified atmosphere at 37 °C with 5% CO₂.
(§3) Cell Viability Assay: AML cells were seeded in 96-well plates at a density of 5,000 cells per well and treated with varying concentrations of ZW30441 or vehicle (dimethyl sulfoxide, DMSO). Each condition was performed in triplicate. After the treatment period, cell viability was measured using the Cell Counting Kit-8 (CCK-8; APExBIO, USA, Cat# K1018) according to the manufacturer’s instructions. Absorbance was recorded at 450 nm using a SPECTROstar microplate reader (BMG LABTECH, USA).

MV4-11 cells [2] = assay: Cell proliferation assay in MV4-11 cells; type: cell-based, human; settings: 5 µM, 4-day period
Protocol: as §1
(§4) Cell Proliferation Assay: To assess cell growth, 1×10⁵ cells were seeded per well in 24-well plates in triplicate and treated with 5 µM concentrations of the test compounds. The culture medium containing the compounds was refreshed every 48 hours, and cell densities were maintained below 1×10⁶ cells/mL through periodic dilution. Cell numbers were measured every other day over a 4-day period using a DS-11 automated cell counter (DeNovix, USA).

METTL14 = target: T1, METTL14 (Homo sapiens, UniProt Q9HCE5); assay: Immunoblotting (Western blot) degradation of METTL14 in MV4-11 cells; type: cell-based
T1 construct: Following treatment, total cellular proteins were extracted using RIPA buffer; endogenous in cells; host or cells: MV4-11 (MV4.11) human AML cells, ATCC
T1 sequence (Q9HCE5 whole entry): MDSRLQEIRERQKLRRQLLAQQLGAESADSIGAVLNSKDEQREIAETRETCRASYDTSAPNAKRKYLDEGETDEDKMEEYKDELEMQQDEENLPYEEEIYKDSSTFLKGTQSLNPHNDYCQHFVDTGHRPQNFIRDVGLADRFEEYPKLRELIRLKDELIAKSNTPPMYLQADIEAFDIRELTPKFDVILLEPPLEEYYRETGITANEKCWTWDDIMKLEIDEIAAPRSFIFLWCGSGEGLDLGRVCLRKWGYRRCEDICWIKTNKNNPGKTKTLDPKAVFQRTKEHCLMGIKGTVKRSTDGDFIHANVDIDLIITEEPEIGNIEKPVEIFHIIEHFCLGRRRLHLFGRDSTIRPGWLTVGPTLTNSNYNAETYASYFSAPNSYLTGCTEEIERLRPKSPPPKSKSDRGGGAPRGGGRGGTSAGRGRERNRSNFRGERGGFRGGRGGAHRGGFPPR
T1 sequence (Q86U44 2-580 partner): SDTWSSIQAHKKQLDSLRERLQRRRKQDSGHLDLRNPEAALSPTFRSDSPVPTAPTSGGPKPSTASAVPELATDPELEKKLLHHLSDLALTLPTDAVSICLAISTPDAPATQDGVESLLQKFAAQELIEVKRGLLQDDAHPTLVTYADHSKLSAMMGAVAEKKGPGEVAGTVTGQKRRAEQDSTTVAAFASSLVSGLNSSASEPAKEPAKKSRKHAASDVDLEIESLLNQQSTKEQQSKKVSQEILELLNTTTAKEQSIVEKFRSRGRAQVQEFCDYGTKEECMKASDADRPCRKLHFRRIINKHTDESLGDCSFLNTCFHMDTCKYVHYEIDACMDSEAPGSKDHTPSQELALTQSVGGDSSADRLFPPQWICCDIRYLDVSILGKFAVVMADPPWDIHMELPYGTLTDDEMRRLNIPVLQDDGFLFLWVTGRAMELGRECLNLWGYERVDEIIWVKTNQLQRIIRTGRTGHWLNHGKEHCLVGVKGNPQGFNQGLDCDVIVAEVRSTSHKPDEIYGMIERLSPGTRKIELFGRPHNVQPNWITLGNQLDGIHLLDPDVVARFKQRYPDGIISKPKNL
Protocol: (§5) All cell lines were maintained under standard conditions in a humidified atmosphere at 37 °C with 5% CO₂.
(§6) Western Blot Analysis: Following treatment, total cellular proteins were extracted using RIPA buffer (Auragene, Changsha, China). […] After washing, membranes were incubated with horseradish peroxidase (HRP)-conjugated secondary antibodies (anti-rabbit or anti-mouse IgG; 1:5000) for 2 hours at room temperature. Protein bands were visualized using an enhanced chemiluminescence (ECL) detection kit (Amersham Pharmacia), following the manufacturer's protocol. Band intensities were quantified using ImageJ software and normalized to ACTIN as a loading control. Data was analyzed using GraphPad Prism 9.

METTL3 = METTL3 (Homo sapiens, UniProt Q86U44); assay: Immunoblotting (Western blot) degradation of METTL3 in MV4-11 cells; type: cell-based; design: Following treatment, total cellular proteins were extracted using RIPA buffer; endogenous in cells; host or cells: MV4-11 (MV4.11) human AML cells, ATCC
METTL3, sequence (Q86U44 2-580 limits assumed): as the sequence (Q86U44 2-580 partner) above
METTL3, sequence (Q9HCE5 whole entry partner): as the sequence (Q9HCE5 whole entry) above
Protocol: as §5, §6

MOLM13 cells [3] = assay: Cell viability assay (CCK-8) in MOLM13 cells; type: cell-based, human; settings: CCK-8, normalized to vehicle
Protocol: as §1, §2, §3

MOLM13 cells [4] = assay: Cell proliferation assay in MOLM13 cells; type: cell-based, human; settings: MOLM-13 cells, 5 µM, 4-day period
Protocol: as §1, §4

[5] = Metabolic stability in human liver microsomes; type: in vitro ADME; settings: NADPH, 37 °C
Protocol: To evaluate the potential for advancing this compound to in vivo studies, the in vitro metabolic stability of this compound was determined in human liver microsomes. […] The flexible linker could then be one potential reason for overall metabolic instability. With this knowledge in hand, further optimization of the lead compound would be necessary before beginning in vivo studies. One potential approach is to introduce more rigid linker systems, thereby reducing molecular flexibility to enhance the metabolic stability while continuing to improve potency.
Materials for Microsomal Stability: Reagent-grade KH2PO4, K2HPO4, acetonitrile, methanol, and formic acid (LC-MS grade) were purchased from Fisher Scientific. Phenacetin (≥98% purity) and verapamil (≥98% purity) were obtained from Sigma-Aldrich. Reduced nicotinamide adenine dinucleotide phosphate (NADPH) and human liver microsomes (Lot No # 1210270) were obtained from MP Biomedicals and BioIVT, respectively. Ultrapure water was used for analysis.
Metabolic Stability: Metabolic stability was assessed using male human liver microsomes. ZW30441 was incubated at a concentration of 1 µM with 1 mg/mL of microsomal protein in 50 mM phosphate buffer (pH 7.4). […] Following protein precipitation, the samples were filtered using a Solvinert 96-well plate, centrifuged at 2000 rpm, and analyzed by LC–MS/MS. […]

[6] = MV4-11 cells, 0.3 µM, 24 h, immunoblotting, nd = no degradation
[7] = MV4-11 cells, 1.0 µM, 24 h, immunoblotting, nd = no degradation
[8] = MV4-11 cells, 24 h, Western blot normalized against ACTIN
[9] = MV4-11 cells, time course at 1 µM

SMILES: CC1(C)CCN(Cc2cc(F)c(N3CC(=O)NC4(CCN(c5cc(NCCCCCCCCCC(=O)N6CCN(c7ccc8c(c7)CN(C7CCC(=O)NC7=O)C8=O)CC6)ncn5)CC4)C3)cc2F)CC1 (stereo not drawn) [Compound 4j, 3-(5-(4-(10-((6-(4-(4-((4,4-dimethylpiperidin-1-yl)methyl)-2,5-difluorophenyl)-2-oxo-1,4,9-triazaspiro[5.5]undecan-9-yl)pyrimidin-4-yl)amino)decanoyl)piperazin-1-yl)-1-oxoisoindolin-2-yl)piperidine-2,6-dione]
- EC50 (MV4-11 cells [1]): 2.41 µM
- anti-proliferation activity compared to STM2457 and UZH2 (MV4-11 cells [2]): enhanced cytotoxicity
- anti-proliferation activity compared to STM2457 and UZH2 (MV4-11 cells [2]; listed as ZW30441): more potent anti-proliferation activity; also recorded: superior cellular activity
- Dmax (METTL14; MV4-11, MV4-11 cells, 24 h): 65%
- % reduction in MV4-11 cells, 0.3 µM, METTL14 (METTL14; [6]): 56%
- % reduction in MV4-11 cells, 1.0 µM, METTL14 (METTL14; [7]): 77%
- DC50 (METTL14; [8]): 0.13 µM
- time of maximum degradation of METTL14 (METTL14; [9]): 20 h
- Dmax (METTL3; MV4-11, MV4-11 cells, 24 h): 80%
- % reduction in MV4-11 cells, 0.3 µM, METTL3 (METTL3; [6]): 58%
- % reduction in MV4-11 cells, 1.0 µM, METTL3 (METTL3; [7]): 81%
- DC50 (METTL3; [8]): 0.44 µM
- time of maximum degradation of METTL3 (METTL3; [9]): 20 h
- EC50 (MOLM13 cells [3]; 72 h, listed as ZW30441): 1.02 µM
- EC50 (MOLM13 cells [3]; Homo sapiens, MOLM-13, 72 h): 1.02 µM
- cell growth inhibition compared to STM2457 and UZH2 (MOLM13 cells [4]): comparable cell growth inhibition
- intrinsic clearance (Clint) in human liver microsomes ([5]; 1 µM, 1 mg/mL microsomal protein): 152.1 ± 26.1 uL/min/mg of protein
- half-life at 1 µM ([5]; male, human, liver microsomes, pH 7.4, 1 mg/mL microsomal protein, read-out: half-life (T1/2) in human liver microsomes): 4.6 ± 0.7 min
